From US20170209415A1, “USE OF (+)-1-(3,4-DICHLOROPHENYL)-3-AZABICYCLO[3.1.0]HEXANE TO TREAT ADDICTIVE DISORDERS INCLUDING NICOTINE ADDICTION” (priority 2012, published 2017)

Experiments:
[1] = system: alcohol-preferring (P) rats; test: Forced swim test during nicotine withdrawal in alcohol-preferring rats; type: in vivo, rat
Description: The forced swim test (FST) is an animal model of depression in which nicotine withdrawal causes increased immobility (i.e. despair) in the rodents. The FST accordingly may be used as an animal model to evaluate negative affective states during nicotine withdrawal, which may emulate “depressive-like” behavior in human nicotine addicts.
P rats were administered nicotine by subcutaneous injection of 0.4 mg/kg nicotine each day for 14 days and then deprived of nicotine. Lucki's modified FST (Cryan et al., 2002) was performed using immobility, climbing and swimming every twelve hours following the last dose of nicotine (12 hrs, 24 hrs, 36 hrs, 48 hrs, 60 hrs and 72 hrs) for 72 hours.

[2] = system: alcohol-preferring (P) rats; test: Nicotine potentiation of intracranial self-stimulation (ICSS) in alcohol-preferring rats; type: in vivo, rat
Description: (§1) Rats were anesthetized with isoflurane and an electrode was implanted in the medial forebrain bundles as previously described (Eiler et al., 2005; 2007). Behavioral training and testing was conducted in standard operant chambers (Coulbourn Instruments, Allentown, Pa.) equipped with a removable lever enclosed in a sound attenuating cubicle as previously reported (Eiler et al., 2005; 2007). Four dependent variables were collected in the studies: (1) the frequency that corresponds with 50% of responding (EF50), (2) the minimum/lowest frequency capable of maintaining brain stimulation reward (BSR), (3) the maximum frequency producing the highest rate of lever pressing throughout the BSR session, and (4) the total number of lever presses produced during a 20 minute session.
After surgical implantation, rats were trained on a continuous reinforcement (FR1) schedule, then decreased to a frequency of reinforcement after every six correct responses (FR6) until stabilization.
Following the initial ICSS experiments, the effects of varied doses of nicotine were examined in the ICSS paradigm. Animals were prepared and trained as described above.
as §1, with “The effect of (+)-1-(3, 4-dichlorophenyl)-3-azabicyclo[3.1.0]hexane on the nicotine facilitation of ICSS was examined in P rats. Rats” for “Rats”, “session” for “session,”
After surgical implantation, rats were trained on a continuous reinforcement (FR1) schedule, then decreased to a frequency of reinforcement after every six correct responses (FR6) until stabilization. After training, the rats were sensitized with nicotine (0.4 mg/kg daily) using the Kelley 10-day sensitization model as described in Example I (rats were treated with either nicotine (0.4 mg/ml/kg) or saline once per day for 10 days in a test environment distinct from their home cages (Schroeder et al., 2001).
After sensitization, three of the nicotine cohorts of P rats (n=8) were given (+)-1-(3, 4-dichlorophenyl)-3-azabicyclo[3.1.0]hexane (10, 20 or 40 μg) into the medial prefrontal cortex (mPC) prior to the daily administration of nicotine (0.4 mg/ml/kg).

[3] = system: alcohol-preferring (P) rats; test: Nicotine withdrawal effects in ICSS paradigm in alcohol-preferring rats; type: in vivo, rat
Description: as §1, with “session” for “session,”
After surgical implantation, rats were trained on a continuous reinforcement (FR1) schedule, and then decreased to a frequency of reinforcement after every six correct responses (FR6) until stabilization. After training, the rats were sensitized with nicotine (0.4 mg/kg daily) for 14 days. 12 hours after the last dose of nicotine, animals were run for a 20 min FR-6 ICSS sessions. ICSS sessions were run every 12 hours (12 hrs, 24 hrs, 36 hrs, 48 hrs, 60 hrs and 72 hrs) for 72 hours.
as §1, with “The effect of (+)-1-(3, 4-dichlorophenyl)-3-azabicyclo[3.1.0]hexane on nicotine withdrawal and ICSS was examined in P rats. Rats” for “Rats”, “session” for “session,”
After surgical implantation, rats were trained on a continuous reinforcement (FR1) schedule, and then decreased to a frequency of reinforcement after every six correct responses (FR6) until stabilization. After training, the rats were sensitized with nicotine (0.4 mg/kg daily) for 14 days. Rats were then given either PBS, 20 mg/kg of (+)-1-(3, 4-dichlorophenyl)-3-azabicyclo[3.1.0]hexane or 40 mg/kg of (+)-1-(3, 4-dichlorophenyl)-3-azabicyclo[3.1.0]hexane. After 48 hours, the animals were run for a 20 min FR-6 ICSS session.

[4] = system: alcohol-preferring (P) rats; test: Nicotine sensitization, open field locomotor activity in alcohol-preferring rats; type: in vivo, rat; conditions: for locomotor activity when administered alone: oral 2.5-40 mg/kg without nicotine, P rats
Description: P and NP (alcohol-nonpreferring) rats were administered nicotine by subcutaneous injection of 0.4 mg/kg nicotine each day for 10 days. The rats were then immediately run for 90 minute locomotor sessions using an open-field activity monitoring cage (27×27×20.3 cm, Med Associates, Inc., St. Albans, Vt.). Activity counts represented by the number of infrared beam interruptions were recorded for each animal.
To evaluate the capacity of oral (+)-1-(3, 4-dichlorophenyl)-3-azabicyclo[3.1.0]hexane to block nicotine-induced sensitization in P rats, cohorts of P rats (n=6-9/group) were sensitized to nicotine as described in Example I. The rats were then divided into sixteen groups and given either vehicle, nicotine alone, 2.5 mg/kg (+)-1-(3, 4-dichlorophenyl)-3-azabicyclo[3.1.0]hexane, 5 mg/kg (+)-1-(3, 4-dichlorophenyl)-3-azabicyclo[3.1.0]hexane, 10 mg/kg (+)-1-(3, 4-dichlorophenyl)-3-azabicyclo[3.1.0]hexane, 25 mg/kg (+)-1-(3, 4-dichlorophenyl)-3-azabicyclo[3.1.0]hexane, or 40 mg/kg (+)-1-(3, 4-dichlorophenyl)-3-azabicyclo[3.1.0]hexane. Thirty minutes after administration of (+)-1-(3, 4-dichlorophenyl)-3-azabicyclo[3.1.0]hexane, half of the rats were given 0.4 mg/kg nicotine or vehicle. The rats were then immediately run for 90 minute locomotor sessions using an open-field activity monitoring cage (27×27×20.3 cm, Med Associates, Inc., St. Albans, Vt.). Activity counts represent the number of infrared beam interruptions were recorded for each animal.

[5] = cited from earlier work
[6] = biological target: T1, α7 nicotinic receptors (Homo sapiens, UniProt P36544); test: Radioligand binding to α7 nicotinic receptors in SH-SYSY cells ([125I]α-bungarotoxin)
T1 construct: Cerep, Inc. (Poitiers, France), contract assay; host or cells: SH-SYSY (SH-SY5Y) cells
Description: (§2) To examine the possibility that a (+)-1-(3, 4-dichlorophenyl)-3-azabicyclo[3.1.0]hexane may have effects mediated via direct actions on nicotinic receptors, its affinity was determined for α7 and α4β2 nicotinic receptors in radioligand binding assays. The assessment was conducted by Cerep, Inc. (Poitiers, France). Inhibition of binding to α4β2 nicotinic receptors in SH-SYSY cells was determined using the radioligand [^3H]cytosine at 0.6 nM concentration according to the method of Gopalakrishnan et al. (1996). Incubation was for 120 minutes at 4° C. and non-specific binding was determined with 10 μM nicotine. Inhibition of binding to α7 nicotinic receptors in SH-SYSY cells was determined using [^125I]α-bungarotoxin (0.05 nM) according to the method of Sharples et al. (2000). Incubation was 120 minutes at 37° C. and non-specific binding was determined using α-bungarotoxin (1 μM). Specific binding of the radioligands was determined by scintillation spectrometry technology.

[7] = biological target: T2, α4β2 nicotinic receptors (Homo sapiens, UniProt P17787+P43681); test: Radioligand binding to α4β2 nicotinic receptors in SH-SYSY cells ([3H]cytosine)
T2 construct: Cerep, Inc. (Poitiers, France), contract assay; host or cells: SH-SYSY (SH-SY5Y) cells
Description: as §2

[8] = after 0.4 mg/kg sc daily for 14 days
[9] = 0.2-0.8 mg/kg SQ, all 3 doses, sensitized P rats
[10] = 12-72 hrs after last dose, 0.4 mg/kg daily for 14 days
[11] = read-out: % Inhibition of binding
[12] = oral 20 and 40 mg/kg, 48 hours nicotine abstinence

T2 sequence (P43681 29-627 limits assumed): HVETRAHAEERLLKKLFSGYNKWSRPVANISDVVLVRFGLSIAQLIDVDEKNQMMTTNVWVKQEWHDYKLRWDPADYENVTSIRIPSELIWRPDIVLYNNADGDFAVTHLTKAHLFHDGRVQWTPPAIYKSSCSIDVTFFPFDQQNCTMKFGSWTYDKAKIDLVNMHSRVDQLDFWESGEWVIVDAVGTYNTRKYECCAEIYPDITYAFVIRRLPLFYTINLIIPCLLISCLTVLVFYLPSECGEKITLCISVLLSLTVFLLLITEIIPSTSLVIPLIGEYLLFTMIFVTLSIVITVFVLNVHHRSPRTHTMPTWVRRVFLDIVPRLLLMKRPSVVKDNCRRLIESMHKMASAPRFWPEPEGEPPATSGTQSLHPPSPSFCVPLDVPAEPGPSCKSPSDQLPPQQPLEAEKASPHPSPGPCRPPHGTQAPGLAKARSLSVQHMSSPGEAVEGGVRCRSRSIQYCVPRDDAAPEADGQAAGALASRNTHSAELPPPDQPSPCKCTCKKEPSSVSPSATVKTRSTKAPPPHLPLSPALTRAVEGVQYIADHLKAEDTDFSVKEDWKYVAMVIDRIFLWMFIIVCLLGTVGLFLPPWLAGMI
T2 sequence (P17787 26-502): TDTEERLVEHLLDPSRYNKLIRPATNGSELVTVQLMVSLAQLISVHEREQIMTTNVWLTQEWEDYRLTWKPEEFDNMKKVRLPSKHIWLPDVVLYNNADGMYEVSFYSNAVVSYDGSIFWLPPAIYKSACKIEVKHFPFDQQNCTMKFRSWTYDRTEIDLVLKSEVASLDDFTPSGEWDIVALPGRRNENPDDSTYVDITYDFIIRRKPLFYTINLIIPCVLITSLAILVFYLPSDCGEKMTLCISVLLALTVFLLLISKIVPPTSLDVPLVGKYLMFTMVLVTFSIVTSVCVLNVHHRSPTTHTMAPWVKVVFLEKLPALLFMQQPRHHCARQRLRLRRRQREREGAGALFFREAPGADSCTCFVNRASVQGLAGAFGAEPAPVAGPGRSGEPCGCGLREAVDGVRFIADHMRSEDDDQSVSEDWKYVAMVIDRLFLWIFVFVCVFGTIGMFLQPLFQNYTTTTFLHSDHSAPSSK
T1 sequence (P36544 23-502): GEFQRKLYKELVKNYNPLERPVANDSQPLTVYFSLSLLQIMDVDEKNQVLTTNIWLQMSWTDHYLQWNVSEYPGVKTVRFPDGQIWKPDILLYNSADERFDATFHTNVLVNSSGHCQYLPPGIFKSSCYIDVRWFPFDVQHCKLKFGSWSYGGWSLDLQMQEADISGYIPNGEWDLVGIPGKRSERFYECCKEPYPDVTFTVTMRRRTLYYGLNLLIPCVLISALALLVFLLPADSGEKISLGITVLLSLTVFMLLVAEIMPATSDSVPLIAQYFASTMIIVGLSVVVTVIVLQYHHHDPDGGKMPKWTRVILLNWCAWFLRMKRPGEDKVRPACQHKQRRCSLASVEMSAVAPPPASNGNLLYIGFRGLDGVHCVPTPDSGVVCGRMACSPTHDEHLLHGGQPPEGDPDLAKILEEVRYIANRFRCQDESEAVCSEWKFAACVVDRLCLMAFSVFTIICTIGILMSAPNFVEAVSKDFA

## CN1CCCC1c1cccnc1 (stereo not shown) [nicotine]
[1]; [8]
  climbing during nicotine abstinence: Reduction
  swimming during nicotine abstinence: Reduction
[1]; at 48 and 72 hours after 0.4 mg/kg sc daily for 14 days
  immobility during nicotine abstinence: significant elevation
[2]; 0.4 mg/kg sc on day 11, P, but not NP, rats
  sensitivity to the reward potentiating effects of nicotine in ICSS following sensitization: enhanced sensitivity
[2]; 0.2-0.8 mg/kg SQ on day 11, sensitized P rats
  ICSS responding versus saline: higher responding than did saline
[2]; [9]
  EF50: reduction
  minimum frequency: reduction
[3]; [10]
  EF50 during withdrawal: time dependent increase
  minimum frequency capable of maintaining BSR during withdrawal: time dependent increase
  total ICSS responding during withdrawal: marked reduction
[4]; 0.4 mg/kg sc daily for 10 days, P versus NP rats
  sensitization to nicotine (open field activity): occurs in P rats only

## COC[C@@H]1[C@@H](c2ccc(Cl)c(Cl)c2)C[C@@H]2CC[C@H]1N2 [GSK372475, reference compound]
[5]; in vivo
  noradrenergic side effects such as significantly elevated heart rate and increased systolic and diastolic blood pressure: seen

## Clc1ccc([C@]23CNC[C@H]2C3)cc1Cl [amitifadine, (1R,5S)-(+)-1-(3,4-dichlorophenyl)-3-azabicyclo[3.1.0]hexane]
[6]; [11]
  inhibition at 0.1 µM: 13%
  inhibition at 1 µM: 6%
  inhibition at 10 µM: -9%
[6]; α7, concentrations from 100 to 10,000 nM
  effect on binding of radioligand: no appreciable effect
[7]; concentration 100 nM
  inhibition at 0.1 µM: 17%
[7]; concentration 1000 nM
  inhibition at 1 µM: 14%
[7]; concentration 10000 nM
  inhibition at 10 µM: 13%
[7]; concentrations from 100 to 10,000 nM
  effect on binding of radioligand: no appreciable effect
[5]; U.S. Ser. No. 13/310,694, Graff et al. 2009
  tolerability: well tolerated
[5]; in vivo
  dopaminergic side effects such as nausea, vomiting, and hypomania: did not lead to
  noradrenergic side effects such as significantly elevated heart rate and increased systolic and diastolic blood pressure: did not lead to
[1]; oral 12.5 or 25 mg/kg administered at 48 hours of nicotine abstinence
  nicotine-induced increases in immobility: significantly attenuated
[2]; 10, 20 or 40 μg into mPC
  nicotine elevation in total responding: attenuation
  nicotine reduction of EF50: attenuation
  nicotine reduction of minimum frequency: attenuation
[2]; 10, 20 or 40 μg into medial prefrontal cortex immediately prior to nicotine 0.4 mg/ml/kg, P rats
  nicotine facilitation on ICSS: significantly reduced
[3]; oral 20 and 40 mg/kg
  reduction in responding produced by the 48 hour withdrawal period: elevated
[3]; [12]
  nicotine elevation of the reward threshold, EF50: profound reduction
  nicotine elevation of the reward threshold, minimum frequency: profound reduction
[4]; oral 2.5, 5, 10, 25, 40 mg/kg, 30 min before 0.4 mg/kg nicotine, sensitized P rats, 90 minute open field session
  nicotine-induced increases in horizontal activity: significantly reduced
[4]; 90 minute open field session
  locomotor activity when administered alone: did not significantly alter
[4]; 90 minute open field session, listed as (+)-1-(3, 4-dichlorophenyl)-3-azabicyclo[3.1.0]hexane
  locomotor activity when administered alone: did not alter
